Measured values reported in patent US20190210973A1, “COMPOUNDS AND METHODS FOR TREATMENT OF CYSTIC FIBROSIS” (The Curators of the University of Missouri, priority 2018, published 2019).

Experiments:
Format in all cases: cell-based
[1] = biological target: T1, delF508-CFTR (Homo sapiens, UniProt P13569, DEL508-508); test: Western blot of delF508-CFTR membrane (surface) expression, Band C; design: delF508 stably-transfected C127 cells were cultured in DMEM with 10% FBS in 6-well plates; expressed in transfected cells; host or cells: C127 cells stably expressing delF508-CFTR; details: for surface expression of delF508-CFTR (Band C, corrected to vimentin, DMSO = 100): C127 cells
From the text: The amount of CFTR proteins in the cell membrane can be determined with Western blot analysis. Like all membrane proteins in the cell, the CFTR protein is synthesized in the endoplasmic reticulum (ER), translocated to the Golgi apparatus for glycosylation before trafficked to the plasma membrane. Because of the addition of complex sugar molecules to CFTR, the molecular weight of “mature” or post-Golgi CFTR in the plasma membrane is higher than that of newly synthesized proteins in the ER. Thus, in Western blot, it is possible to discern two distinct bands: band C representing high molecular weight, mature CFTR, and band B low molecular weight, immature CFTR. While wild-type proteins are present mostly as band C, Class II disease-associated mutations such as delF508 causes a drastic diminution of band C, resulting in an effective decrease of N in the formula N×Po×i. The effects of the reagents (or CFTR correctors) that enhance band C can thus be quantitatively assessed with the Western blot analysis. By the same token, any interactions between different compounds, with positive or negative impact on band C, can be determined with this assay.
Western blot experiments were carried out in both transient expression system (CHO cells) and a stable cell line (C127 cells). CHO cells, grown in 35 mm dishes, were transfected with delF508-CFTR construct in pcDNA plasmids using X-tremeGENE (Roche). Six hours after transfection, tested compounds were added to the medium. In case of delF508-CFTR-expressing stable C127 cells, compounds were added to the medium at about 30% confluence. In both cases, cells were lysed 18 hours post drug treatment using 1×SDS loading buffer. Cell lysates were sheared by pushed through 18G needles. Whole cell lysate were separated in 4˜20% gradient gels (Bio-Rad Laboratories) and transferred onto nitrocellulose membranes. The membranes were blocked with 5% milk in TBST buffer (20 mM Tris, 137 mM NaCl, 0.1% Tween 20) at 4° C. overnight. The membranes were then probed with anti-CFTR antibody (AB596 from the Cystic Fibrosis Foundation) and anti-vimentin antibody as a control (Santa Cruz Biotechnology) at room temperature for two hours. The membranes were washed with TBST five times and then incubated with anti-mouse IgG, HRP-linked antibody (Cell Signaling Technology) at room temperature for one hour. The membranes were washed three times with TBST and developed with chemiluminescence reagent (Thermo Scientific). The luminescence was detected and quantified by a Molecular Image Chemi Doc (Bio-Rad Laboratories).
For Western blotting experiments, delF508 stably-transfected C127 cells were cultured in DMEM with 10% FBS in 6-well plates. Different tested compounds were added to the culture medium within 24 hours of passage to the desired concentration. Cells were lysed 18 hours post drug treatment using 1×SDS loading buffer. Cell lysates were sheared by pushed through 18G needles. Whole cell lysates were separated in 4-20% gradient gels (Bio-Rad Laboratories) and transferred onto nitrocellulose membranes. The membranes were blocked with 5% milk in TBST buffer (20 mM Tris, 137 mM NaCl, 0.1% Tween 20) at 4° C. overnight. The membranes were then probed with anti-CFTR antibody (AB660 from CFTR foundation) and anti-vimentin antibody as a loading control (Santa Cruz Biotechnology) at room temperature for two hours. The membranes were washed with TBST five times and then incubated with anti-mouse IgG, HRP linked antibody (Cell Signaling Technology) at room temperature for one hour. The membranes were washed three times with TBST and developed with chemiluminescence reagent (Thermo Scientific). The luminescence was detected by a Molecular Image Chemi Doc (Bio-Rad Laboratories). […]

[2] = biological target: T1, delF508-CFTR; test: Patch-clamp recording of delF508-CFTR currents in excised inside-out patches of transfected CHO cells
From the text: (§1) Patch-clamp is considered the gold standard for assessing directly ion channel function in real time. By attaching a glass microelectrode on the surface of a cell, it is possible to record the currents generated by channels proteins that are present in this tiny “patch” of cell membranes. Since millions of ions pass through a single ion channel pore per second, the resulting microscopic currents from a single channel protein molecule can be detected with modem patch-clamp amplifiers. As ion channels (a conductor in electricity term) are arranged in parallel in the cell membrane, it is also possible to assay a group of ion channels by monitoring macroscopic currents representing the sum of currents from individual channels. Microscopic recordings allow artisans to examine exquisitely the effects of compounds on the Po and kinetic parameters of CFTR channels; whereas macroscopic recordings provide an assay not only to quantify the overall effects of compounds on N×Po×i, but also monitor the stability of the CFTR currents in real time.
(§2) Chinese hamster ovary (CHO) cells were grown at 37° C. in Dulbecco's modified Eagle's medium supplemented with 10% fetal bovine serum. Cells were subcultured into 35-mm tissue culture dishes 1 day before transfection. PolyFect transfection reagent (QIAGEN) was used to cotransfect CFTR cDNA and pEGFP-C3 (Takara Bio Inc.), which encodes green fluorescence proteins, into CHO cells. After transfection, cells were incubated at 27° C. for at least 2 days before electrophysiological experiments were performed.
(§3) Glass chips carrying the transfected cells were transferred to a chamber located on the stage of an inverted microscope (IX51; Olympus). Borosilicate capillary glasses were used to make patch pipettes using a two-stage micropipette puller (PP-81, Narishige, Japan). The pipettes were polished with a homemade microforge to a resistance of 2-4 MΩ in the bath solution. Once the seal resistance reached >40 GΩ, membrane patches were excised into an inside-out mode. Subsequently, the pipette was moved to the outlet of a three-barrel perfusion system and perfused with 25 IU PKA and 2 mM ATP until the CFTR current reached a steady state. A patch-clamp amplifier (EPC10, HEKA, Germany) was used to record electrophysiological data at room temperature. The data were filtered online at 100 Hz with an eight-pole Bessel filter (LPF-8; Warner Instruments) and digitized to a computer at a sampling rate of 500 Hz. […] Membrane potential was held at −30 or −50 mV for all recordings.
(§4) Disease-causing mutations (G551D and delF508) were made with PCR-based site-directed mutagenesis using the Pfu Ultra II (Agilent Technologies). […] The cDNA constructs of CFTR (G551D and delF508) were co-transfected with peGFP-C3 (Takara Bio Inc.) encoding the green fluorescent protein into CHO cells using PolyFect transfection reagent (QIAGEN). The transfected cells were transferred into 35 mm tissue culture dishes containing one layer of sterilized glass chips for cells to grow on. The transfected cells were incubated at 27° C. for 2-7 days before electrophysiological experiments were performed.
(§5) All patch-clamp experiments were carried out in the excised inside-out configuration. Micropipettes made of borosilicate capillary glass were pulled with a two-stage vertical puller (Narishige) and then fire-polished with a homemade microforge to reach a pipet resistance of 2-4 MΩ when the pipettes were filled with a standard inside-out pipet solution that contains: 140 mM N-Methyl-D-glucamine-Cl (NMDG-Cl), 2 mM MgCl2, 5 mM CaCl2) and 10 mM HEPES, adjusted to pH 7.4 with NMDG.

[3] = biological target: T2, G551D-CFTR (Homo sapiens, UniProt P13569, G551D); test: Patch-clamp recording of G551D-CFTR currents in excised inside-out patches of transfected CHO cells; details: for fold increase of G551D-CFTR currents (ILZH+ATP/IATP): single application
T2 construct: The cDNA constructs of CFTR (G551D and delF508) were co-transfected with peGFP-C3; expressed in transfected cells; host or cells: CHO cells (ATCC), transient co-transfection with pEGFP-C3 (GFP as a separate marker, not fused)
From the text: as §1, §2, §3, §4, §5

T1 sequence (P13569 with tags, fused parts or gaps DEL508-508): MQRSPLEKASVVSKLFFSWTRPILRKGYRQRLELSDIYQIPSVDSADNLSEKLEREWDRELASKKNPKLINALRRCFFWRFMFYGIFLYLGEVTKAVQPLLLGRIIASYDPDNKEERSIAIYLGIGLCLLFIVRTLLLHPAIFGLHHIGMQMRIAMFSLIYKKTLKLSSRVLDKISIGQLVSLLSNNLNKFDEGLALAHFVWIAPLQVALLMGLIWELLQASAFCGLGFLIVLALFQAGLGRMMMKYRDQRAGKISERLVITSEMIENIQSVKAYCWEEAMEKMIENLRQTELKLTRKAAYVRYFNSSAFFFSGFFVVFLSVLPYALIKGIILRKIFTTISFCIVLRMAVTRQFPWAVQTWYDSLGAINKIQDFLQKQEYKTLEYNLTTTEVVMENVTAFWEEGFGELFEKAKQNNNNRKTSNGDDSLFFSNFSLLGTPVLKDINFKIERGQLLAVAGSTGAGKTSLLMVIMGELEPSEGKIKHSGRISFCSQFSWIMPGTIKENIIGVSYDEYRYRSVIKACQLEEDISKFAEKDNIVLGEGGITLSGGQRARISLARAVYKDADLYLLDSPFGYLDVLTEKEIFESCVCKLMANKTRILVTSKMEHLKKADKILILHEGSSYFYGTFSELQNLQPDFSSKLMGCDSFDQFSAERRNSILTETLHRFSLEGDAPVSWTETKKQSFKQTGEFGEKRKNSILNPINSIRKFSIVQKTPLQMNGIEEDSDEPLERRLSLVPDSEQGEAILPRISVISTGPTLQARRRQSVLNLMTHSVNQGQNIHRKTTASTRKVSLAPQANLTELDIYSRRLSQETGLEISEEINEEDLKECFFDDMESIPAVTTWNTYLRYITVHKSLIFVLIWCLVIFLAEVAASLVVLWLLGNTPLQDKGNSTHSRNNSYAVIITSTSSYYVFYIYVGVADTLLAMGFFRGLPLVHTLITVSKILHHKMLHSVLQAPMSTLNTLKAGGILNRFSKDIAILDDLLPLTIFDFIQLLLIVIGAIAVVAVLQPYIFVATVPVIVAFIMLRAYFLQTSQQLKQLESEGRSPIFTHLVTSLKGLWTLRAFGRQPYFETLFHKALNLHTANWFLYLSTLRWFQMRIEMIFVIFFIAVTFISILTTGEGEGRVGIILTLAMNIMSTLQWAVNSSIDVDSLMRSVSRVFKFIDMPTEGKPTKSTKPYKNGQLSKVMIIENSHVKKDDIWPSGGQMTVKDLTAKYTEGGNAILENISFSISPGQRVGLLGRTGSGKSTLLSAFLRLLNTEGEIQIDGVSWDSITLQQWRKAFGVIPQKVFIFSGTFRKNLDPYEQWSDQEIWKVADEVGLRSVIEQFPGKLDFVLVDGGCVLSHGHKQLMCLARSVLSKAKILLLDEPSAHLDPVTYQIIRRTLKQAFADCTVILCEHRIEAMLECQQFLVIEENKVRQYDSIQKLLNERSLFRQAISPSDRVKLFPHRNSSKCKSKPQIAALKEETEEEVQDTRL
T2 sequence (P13569 whole entry G551D, the tested form may be a part): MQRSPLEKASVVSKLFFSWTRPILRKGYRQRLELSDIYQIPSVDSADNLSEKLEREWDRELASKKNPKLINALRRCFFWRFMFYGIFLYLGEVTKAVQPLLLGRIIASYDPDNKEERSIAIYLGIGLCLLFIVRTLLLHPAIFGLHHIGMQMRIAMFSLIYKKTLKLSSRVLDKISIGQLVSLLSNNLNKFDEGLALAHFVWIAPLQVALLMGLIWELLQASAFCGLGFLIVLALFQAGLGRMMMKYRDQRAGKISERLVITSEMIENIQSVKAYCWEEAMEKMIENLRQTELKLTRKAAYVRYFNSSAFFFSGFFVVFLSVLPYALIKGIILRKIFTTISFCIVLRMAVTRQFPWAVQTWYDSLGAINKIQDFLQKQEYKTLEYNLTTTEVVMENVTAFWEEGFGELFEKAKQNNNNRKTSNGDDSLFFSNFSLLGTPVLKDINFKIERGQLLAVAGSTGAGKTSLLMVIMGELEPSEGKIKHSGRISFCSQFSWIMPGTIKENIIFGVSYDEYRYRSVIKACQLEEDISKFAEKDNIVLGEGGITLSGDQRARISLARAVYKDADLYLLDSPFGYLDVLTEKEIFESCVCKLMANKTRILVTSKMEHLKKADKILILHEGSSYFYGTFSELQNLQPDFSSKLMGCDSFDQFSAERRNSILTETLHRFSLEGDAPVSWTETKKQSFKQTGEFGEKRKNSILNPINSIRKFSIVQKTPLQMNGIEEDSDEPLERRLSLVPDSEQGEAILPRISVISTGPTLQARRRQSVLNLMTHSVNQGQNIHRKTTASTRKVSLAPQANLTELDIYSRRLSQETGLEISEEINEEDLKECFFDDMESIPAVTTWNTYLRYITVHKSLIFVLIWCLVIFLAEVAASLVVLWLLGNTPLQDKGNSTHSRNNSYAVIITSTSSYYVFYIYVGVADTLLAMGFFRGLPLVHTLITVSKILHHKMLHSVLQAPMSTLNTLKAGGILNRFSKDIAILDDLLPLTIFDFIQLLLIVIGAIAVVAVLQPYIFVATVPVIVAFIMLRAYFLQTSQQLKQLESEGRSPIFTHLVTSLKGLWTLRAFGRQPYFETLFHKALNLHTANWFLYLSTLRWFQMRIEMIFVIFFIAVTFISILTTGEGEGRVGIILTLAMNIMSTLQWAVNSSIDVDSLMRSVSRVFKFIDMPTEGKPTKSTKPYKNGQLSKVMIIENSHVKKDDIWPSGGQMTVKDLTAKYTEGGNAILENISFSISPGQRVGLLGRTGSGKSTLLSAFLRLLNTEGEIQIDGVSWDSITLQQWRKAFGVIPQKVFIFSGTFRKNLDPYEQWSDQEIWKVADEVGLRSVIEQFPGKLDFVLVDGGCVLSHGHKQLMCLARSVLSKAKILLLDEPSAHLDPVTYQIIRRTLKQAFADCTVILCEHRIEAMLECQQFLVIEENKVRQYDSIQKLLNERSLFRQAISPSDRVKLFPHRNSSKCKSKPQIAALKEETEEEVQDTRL

CNCCCCOc1ccc(-c2n[nH]c3cc(Br)ccc23)c(F)c1 [LZH-00025, 4-(4-(6-bromo-1H-indazol-3-yl)-3-fluorophenoxy)-N-methylbutan-1-amine]
surface expression of delF508-CFTR (Band C, corrected to vimentin, DMSO = 100) ([1]; 3 μM VX-809 + 0.1 μM LZH compound, lane 5): 263 ± 27, N = 4
surface expression of delF508-CFTR (Band C, corrected to vimentin, DMSO = 100) ([1]; 3 μM VX-809 + 0.5 μM LZH compound, lane 4): 323 ± 14, N = 4
surface expression of delF508-CFTR (Band C, corrected to vimentin, DMSO = 100) ([1]; 3 μM VX-809 + 5 μM LZH compound, lane 3): 300 ± 42, N = 4
influence on the effect of Lumacaftor (VX-809) on membrane expression of delF508-CFTR (words) ([1]; added to 3 μM VX-809): retains or even enhances the effect of Lumacaftor
fold increase of delF508-CFTR currents (ILZH+ATP+VX-770/IATP) ([2]; combined application with VX-770 (200 nM), 2.5 μM LZH compound): 7.7 ± 2.0, N = 3 fold
fold increase of delF508-CFTR currents (ILZH+ATP+VX-770/IATP) ([2]; combined application with VX-770, 0.5 μM LZH compound): 7.3 ± 0.8, N = 3 fold
fold increase of delF508-CFTR currents (ILZH+ATP/IATP) ([2]; single application, 5 μM): 3.6 ± 0.9, N = 4 fold
fold increase of G551D-CFTR currents (ILZH+ATP+VX-770/IATP) ([3]; combined application with VX-770, 0.2 μM LZH compound): 8.0 ± 1.0, N = 3 fold
fold increase of G551D-CFTR currents (ILZH+ATP+VX-770/IATP) ([3]; combined application with VX-770, 1 μM LZH compound): 11.0 ± 2.9, N = 4 fold
fold increase of G551D-CFTR currents (ILZH+ATP+VX-770/IATP) ([3]; combined application with VX-770, 5 μM LZH compound): 9.7 ± 0.7, N = 4 fold
fold increase of G551D-CFTR currents (ILZH+ATP/IATP) ([3]; 1 μM): 2.1 ± 0.2, N = 11 fold
fold increase of G551D-CFTR currents (ILZH+ATP/IATP) ([3]; 5 μM): 4.9 ± 0.7, N = 14 fold
fold increase of G551D-CFTR currents (ILZH+ATP/IATP) ([3]; 20 μM): 7.4 ± 0.5, N = 8 fold
